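In this assay, cells in 96-well plates receive the compound at five concentrations for 48 hours. Endpoints are linearly interpolated between the surrounding concentrations. Abbreviation: GI50, concentration required for 50% inhibition of growth.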 Active and inactive are the calls of the source. Cut-off read from the data, not from the text of the source: active = GI50 up to about 1.1 µM and inactive = higher.
Experiments:
Assay in all cases: growth of human tumour cells (NCI), 48 h
[1] = test system: LXFL 529
[2] = test system: HOP-18
[3] = test system: DMS-114
[4] = test system: DMS-273
[5] = test system: DLD-1
[6] = test system: KM-20L2
[7] = test system: SNB-78
[8] = test system: XF498
[9] = test system: RXF 631

Measured: GI50

CC1=CC2=C(OCO1)C(=O)c1ccccc1C2=O
inactive: [1] 21.7 µM | [2] 12.4 µM | [3] 3.35 µM | [4] 10.5 µM | [5] 21.5 µM | [6] 22.9 µM | [7] 33.1 µM

NS(=O)(=O)c1cc2c(cc1Cl)NC(C(=O)c1cc(=O)c3ccc(O)cc3o1)=NS2(=O)=O
inactive: [8] > 100 µM | [2] > 100 µM | [3] > 100 µM | [4] > 100 µM | [5] > 100 µM | [6] > 100 µM | [7] > 100 µM

COc1ccc(Cc2nccc3cc(OC)c(OC)cc23)cc1
inactive: [1] 28 µM | [8] 23.8 µM | [3] 29.7 µM | [5] > 100 µM | [6] > 100 µM | [7] > 100 µM

CC12CCCCC1C(=O)C2(Cl)Cl (stereo unspecified)
inactive: [1] 2.28 µM | [8] 2.07 µM | [9] 1.92 µM | [4] 2.21 µM | [5] 1.97 µM | [7] 4.44 µM

O=C(O)C12C=CC(C1)c1ccccc12 (stereo unspecified)
inactive: [1] > 100 µM | [2] > 100 µM | [3] > 100 µM | [4] > 100 µM | [5] > 100 µM | [6] > 100 µM

CCCCN(CCCC)CC(C(=O)Nc1ccccc1)/C(C)=N\NC(=O)c1ccncc1 (stereo unspecified)
inactive: [8] > 100 µM | [3] 63 µM | [4] > 100 µM | [5] > 100 µM | [6] > 100 µM | [7] > 100 µM

COc1ccccc1C(N)c1ccccc1 (stereo unspecified)
inactive: [1] > 100 µM | [2] > 100 µM | [3] > 100 µM | [4] > 100 µM | [5] > 100 µM | [6] > 100 µM | [7] > 100 µM

COc1ccc(C2S/C(=C\c3cc(OC)c(OC)c(OC)c3)C(=O)N2NC(=O)Cc2ccccc2)cc1 (stereo unspecified)
inactive: [1] 61.9 µM | [2] > 100 µM | [3] 72.9 µM | [4] > 100 µM | [5] 94.2 µM

Nc1ccn(CCOC(c2ccccc2)P(=O)(O)O)c(=O)n1 (stereo unspecified)
inactive: [1] > 100 µM | [8] > 100 µM | [3] > 100 µM | [4] > 100 µM | [5] > 100 µM | [6] > 100 µM | [7] > 100 µM

CC(C)(C)C(=O)Cc1cc2c(cc1C(=O)O)S(=O)(=O)NC(C(C)(C)C)=C2
inactive: [1] > 100 µM | [3] > 100 µM | [5] > 100 µM | [7] > 100 µM

Cn1ncc2cc3c(Nc4ccc(Cl)cc4)cccc3nc21
inactive: [1] 15.6 µM | [8] 8.11 µM | [9] 17.7 µM | [3] 12.9 µM | [4] > 10 µM | [5] 20.3 µM | [6] 14.7 µM | [7] 34 µM

CC(Oc1cc2oc(=O)cc(-c3ccccc3)c2cc1Cl)C(=O)O (stereo unspecified)
inactive: [1] > 100 µM | [8] 33.5 µM | [2] > 100 µM | [9] > 100 µM | [3] > 100 µM | [5] > 100 µM | [6] > 100 µM | [7] > 100 µM

COC(=O)c1cc(C)n(NC(=O)OC(C)(C)C)c1C
inactive: [1] > 100 µM | [3] > 100 µM | [4] > 100 µM | [5] > 100 µM | [6] > 100 µM | [7] 95.1 µM

Cc1ccc(NC(=O)CCC(=O)C2CC(=O)CC/C2=N\NC(=O)c2cc3ccccc3cc2O)cc1C (stereo unspecified)
inactive: [1] 21.4 µM | [8] 31.1 µM | [2] 21.8 µM | [9] 32.6 µM | [3] 19.8 µM | [4] 13.2 µM | [5] 30.5 µM | [6] 27.5 µM | [7] 28.6 µM

NC(=O)c1csc(C2OC(COP(=O)(O)CP(=O)(O)OCC3OC(n4cnc5c(N)ncnc54)C(O)C3O)C(O)C2O)n1 (stereo unspecified)
inactive: [1] > 100 µM | [8] > 100 µM | [2] > 100 µM | [9] > 100 µM | [3] > 100 µM | [4] 85.5 µM | [5] > 100 µM | [6] > 100 µM | [7] > 100 µM

CN(C)c1ccc(/C=C2\C[N+](C)(C)C/C(=C\c3ccc(N(C)C)cc3)C2=O)cc1
inactive: [1] 7.55 µM | [8] > 10 µM | [2] 37.1 µM | [3] 7.53 µM | [4] 5.25 µM | [5] 35.9 µM | [6] 12.9 µM | [7] > 49.8 µM

CCCCCCCCCCCCCCCC[N+](C)(C)Cc1ccc(C[N+](C)(C)CCCCCCCCCCCCCCCC)cc1
inactive: [1] 8.09 µM | [2] 1.67 µM | [9] 2.19 µM | [3] 1.85 µM | [4] 1.98 µM | [5] 3.48 µM | [6] 3.62 µM | [7] 2.73 µM

COC1CC(OC)C2OC(c3ccccc3)OCC2O1 (stereo unspecified)
inactive: [1] > 100 µM | [2] > 100 µM | [5] > 100 µM | [6] > 100 µM | [7] > 100 µM

Cc1cccc2c(O)cc(=O)oc12
inactive: [1] > 100 µM | [8] > 100 µM | [2] > 100 µM | [3] > 100 µM | [5] > 100 µM | [6] > 100 µM | [7] > 100 µM

Nc1n[nH]c(N)n1 [GUANAZOLE]
inactive: [8] 237 µM | [2] 5610 µM | [3] 1800 µM | [4] 914 µM | [5] 9840 µM | [6] 7890 µM | [7] 5250 µM

Source: ChEMBL document CHEMBL1201862, “PubChem BioAssay data set” (2004)
